This note sets out measurements from PubChem BioAssay (NCI).

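Five concentrations, 48 hours, 96-well plates. TGI: concentration producing complete growth inhibition.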 A value given as a limit tells only on which side of the number the result lay.

What all share (assay): NCI tumour cell line growth inhibition, 48 h
The subject of test [1] is NCI-H23 lung.
Test [2] concerns NCI-H460 lung.
Test [3] concerns RXF 393 renal.
The subject of test [4] is HOP-62 NSCLC.
The test system of test [5] is SK-MEL-28 melanoma.
Test [6] concerns MDA-MB-231 breast.
In test [7] the test system is TK-10 renal.
Test [8] relates to LOX IMVI melanoma.
The subject of test [9] is SN12C renal.
The test system of test [10] is EKVX NSCLC.
Test [11] relates to UACC-62 melanoma.
For test [12], the system named is SK-OV-3 ovarian.

In the case of `CC(=O)OCC(C)C1=C(O)C(=O)C2(C)C/C=C(/C)CC/C=C(\C)CCC(O)C(C)CCC12` (stereo unspecified), the TGI in test [1] is 36.6 µM; in [2], 32 µM; in test [3] it was 27.4 µM; in [4] it was 32.8 µM; in test [5], 31.7 µM; in [6] it was 30.4 µM. Besides, the TGI in test [7] was 35.9 µM; in test [8], 33.1 µM; in [9] it was 34.1 µM; in test [10], 32 µM; in [11] it was 36.8 µM.

Consider `COCOC1/C=C/CCCC#C[C@H](C)C(=O)CC1` (stereo partly specified), for which the TGI was 19.4 µM in test [1]; 29.3 µM in test [12]; 25.5 µM in test [2]; 23.4 µM in test [3]; 34.8 µM in [4]; 29.4 µM in test [5]. Further, the TGI turned out to be 17 µM in test [6]; 28.6 µM in test [7]; 11.5 µM in test [8]; 23.6 µM in test [9]; 23.1 µM in [10]; 22.6 µM in test [11].

Take `C=C(C)C12CC(COC(=O)c3ccccc3)C34OC5(OC1C3C1OC1(CO)C(O)C1(O)C(OC(=O)c3ccccc3)C(C)C(C(C)CCCCCCC5O)C14)O2` (stereo unspecified): the TGI in [1], in [12], in test [2], in [3], in test [5] and in test [6] was over 100 µM in each case. For the same compound, the TGI is 81.2 µM in test [7]; over 100 µM in test [8]; over 100 µM in test [9]; over 100 µM in [10]; over 100 µM in [11].

With `CN1C(=O)N(c2ccccc2)C2(CCN(CC3COc4ccccc4O3)CC2)C1=O` (stereo unspecified), the TGI in test [1], in [2], in test [3], in test [4], in [5] and in [6] was over 100 µM throughout. Further, the TGI in [7], in test [8], in [9], in [10] and in test [11] was over 100 µM each time.

For `CCOC(=O)CNC(=O)C(CSCc1ccc(Br)cc1)NC(=O)CCC(N)C(=O)OCC` (stereo unspecified), the TGI in test [1], in test [12], in test [2], in test [3], in test [4] and in test [5] was over 50 µM each time. Moreover, the TGI in test [6], in test [9], in test [10] and in test [11] was over 50 µM each time.

Consider `CN(C)/N=N/c1nc2c(c(=O)n(C)c(=O)n2C)n1C`, for which the TGI in test [12], in test [2], in test [3], in test [4], in test [5] and in test [6] was over 100 µM in each case. Besides, the TGI in [7], in [8], in [9], in test [10] and in test [11] was over 100 µM in each case.

`COc1ccccc1N/C(=C\C(=O)C(=O)NC12CC3CC(CC(C3)C1)C2)c1ccccc1`: the TGI in [1], in test [12], in test [2], in test [3], in test [4] and in test [5] was over 10 µM each time. Besides, the TGI in test [6], in [7], in [8], in [9] and in test [10] was over 10 µM throughout.

On to `Nc1nc2cc3nc(N)c(N)nc3cc2nc1N`, for which the TGI in test [1], in test [12], in test [2], in [3], in test [5] and in [6] was over 100 µM throughout. In addition, the TGI in test [7], in [8], in test [9], in test [10] and in test [11] was over 100 µM throughout.

As for `Cc1cc(N(CCC#N)CCC#N)ccc1/C=N/NC(=O)c1cc(Cl)ccc1O`, the TGI in [1], in [12], in test [2], in test [3], in test [4] and in [6] was over 100 µM throughout. Also, the TGI in test [7], in test [9], in test [10] and in test [11] was over 100 µM each time.

With `CC(CN1c2ccccc2Sc2ccccc21)N(C)C` (stereo unspecified), the TGI in test [1] came out at 38.2 µM; in [12] it was 32.6 µM; in test [2], 36 µM; in [3], 37.5 µM; in test [4], 28.5 µM; in test [5] it was 32.5 µM. Besides, the TGI in test [6] worked out at 32.4 µM; in test [8], 35.9 µM; in [9] it was 29.1 µM; in test [10], 58.7 µM; in test [11], 33.9 µM.

`O=C(O)c1cc2c(cc1CC(Cc1ccc3c(c1)CCC3)C(=O)O)CCC2` (stereo unspecified): the TGI in test [1], in test [12], in [2], in [3], in test [4] and in test [5] was over 100 µM each time. The TGI in test [6], in test [7], in [8], in [9] and in test [10] was over 100 µM throughout.

As to `Brc1ccc(CCNCCN2CCCCC2)cc1`, the TGI came out at 37 µM in [1]; 42 µM in test [12]; 27.8 µM in test [2]; 49.8 µM in test [3]; 34.9 µM in [4]; 24.1 µM in test [5]. Also, the TGI is 21.4 µM in test [6]; 28.8 µM in [7]; 27.6 µM in test [8]; 58.5 µM in test [9]; over 100 µM in test [10].
